Measurements as given in patent publication US5116995A, “Carbazole compounds” (Taisho Pharmaceutical Co., Ltd., priority 1990, dated 1992).
Where two headings read alike, the source gives them in different places.

Tests used:
sigma receptor [1] = molecular target: sigma receptor (Rattus norvegicus, UniProt Q9R0C9); assay: biochemical
[2] = system: methamphetamine induced hyperlocomotion; assay: inhibition of Methamphetamine induced Hyperlocomotion; format: in vivo, mouse (male ICR); conditions: mice, test drug 50 mg/kg i.p., 35 min before methamphetamine 1 mg/kg i.p.; measured for 30 min from 15 min later; **P < 0.01 (Dunnett's test)
Procedure: Thirty male ICR mice weighing 20 to 35 g were used for each group (5 animals per test, and 6 tests). Mice were placed in the measuring cages, adapted for 60 minutes, and given intraperitoneally the test drugs in Table 1 suspended in 5% gum arabic solution in a dose of 50 mg/kg (0.1 ml/10 g of the body weight). Thirty-five minutes later, methamphetamine dissolved in physiological saline solution was given intraperitoneally in a dose of 1 mg/kg. Fifteen minutes later, the locomotor content was measured for 30 minutes using an Animex apparatus. Control group was given 5% gum arabic only in a similar manner, and […] for measurement. Results are expressed as percentage to control group in Table 2.

sigma receptor [3] = conditions: cited from earlier work
D2 receptor [4] = conditions: rimcazole value from literature (vol. 155, page 345 (1988)), [3H]spiporone binding; cited from earlier work
phencyclidine receptor [5] = conditions: rimcazole value from literature (vol. 155, page 345 (1988)); cited from earlier work
phencyclidine receptor [6] = assay: Receptor Binding Test: [3H]phencyclidine binding, rat whole brain membranes; design: species or system rat (male Wistar); conditions: rat whole brain membrane, 5 mM Tris-HCl pH 7.7, 25° C., 2 hours
From the text: 32, page 820 (1987), respectively.

D2 receptor [7] = molecular target: D2 receptor (Rattus norvegicus, UniProt P61169); assay: Receptor Binding Test: (-)-[3H]sulpiride binding, rat striatal membranes
Chain of D2 receptor (Rattus norvegicus, UniProt P61169) (P61169 whole entry): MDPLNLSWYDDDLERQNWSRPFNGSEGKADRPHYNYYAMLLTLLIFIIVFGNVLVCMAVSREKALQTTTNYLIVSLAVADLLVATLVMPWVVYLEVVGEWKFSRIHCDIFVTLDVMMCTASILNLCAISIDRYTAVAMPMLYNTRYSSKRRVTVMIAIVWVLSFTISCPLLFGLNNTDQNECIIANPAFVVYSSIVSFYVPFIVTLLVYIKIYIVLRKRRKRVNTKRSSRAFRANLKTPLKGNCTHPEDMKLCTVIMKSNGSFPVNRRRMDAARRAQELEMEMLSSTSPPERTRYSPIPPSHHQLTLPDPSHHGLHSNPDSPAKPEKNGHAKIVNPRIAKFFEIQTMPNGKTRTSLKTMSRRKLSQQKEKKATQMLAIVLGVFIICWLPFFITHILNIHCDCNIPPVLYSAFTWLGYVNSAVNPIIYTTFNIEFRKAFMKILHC

Chain of sigma receptor (Rattus norvegicus, UniProt Q9R0C9) (Q9R0C9 whole entry): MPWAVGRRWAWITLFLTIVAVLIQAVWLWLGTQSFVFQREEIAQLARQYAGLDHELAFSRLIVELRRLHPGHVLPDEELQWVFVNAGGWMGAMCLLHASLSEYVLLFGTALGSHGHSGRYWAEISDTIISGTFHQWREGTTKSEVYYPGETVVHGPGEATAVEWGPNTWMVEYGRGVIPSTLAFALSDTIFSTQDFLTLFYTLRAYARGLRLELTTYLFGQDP

SMILES: CCCN1CCCC(c2cccc(O)c2)C1 (single isomer, unassigned) [3-PPP, 3-(3-hydroxy-phenyl)-N-n-propylpiperidine, reference compound]
- IC50 (sigma receptor [1]): 0.0243 ± 0.0029 µM

SMILES: C[C@@H]1CN(CCCn2c3ccccc3c3ccccc32)C[C@H](C)N1 [Rimcazole]
- locomotor count, % to control group [2]: 51.4%
- affinity and specificity for sigma receptor (sigma receptor [3]; prior art statement): not sufficient
- IC50 (sigma receptor [3]; rimcazole value from literature (vol. 155, page 345 (1988))): 1.46 ± 0.235 µM
- IC50 (D2 receptor [4]): 86 µM
- IC50 (phencyclidine receptor [5]): > 2000 µM

SMILES: CCCN(CCC)Cc1cccc2[nH]c3ccccc3c12.Cl [Test drug A, 4-(di-n-propylaminomethyl)carbazole hydrochloride]
- locomotor count, % to control group [2]: 39.7%
- IC50 (sigma receptor [1]): 0.891 ± 0.0128 µM
- IC50 (phencyclidine receptor [6]): > 10 µM
- IC50 (D2 receptor [7]): 44.3 µM

SMILES: CCCN(CCC)Cc1cccc2[nH]c3c(C)ccc(C)c3c12.Cl [Test drug B, 5,8-dimethyl-4-(di-n-propylaminomethyl)carbazole hydrochloride]
- locomotor count, % to control group [2]: 46.6%
- IC50 (sigma receptor [1]): 1.02 ± 0.131 µM
- IC50 (phencyclidine receptor [6]): > 10 µM
- IC50 (D2 receptor [7]): 23.2 µM

SMILES: CCCN(CCC)CCc1cccc2[nH]c3c(C)ccc(C)c3c12.Cl [Test drug C, 5,8-dimethyl-4-(2-di-n-propylaminoethyl)carbazole hydrochloride]
- locomotor count, % to control group [2]: 35.3%
- IC50 (sigma receptor [1]): 0.0048 ± 0.001 µM
- IC50 (phencyclidine receptor [6]): > 10 µM
- IC50 (D2 receptor [7]): 14.3 µM
